Experimental data from patent US20080287517A1, “Pyrazole Derivatives as Cb1 Modulators” (priority 2005, published 2008).

Target: T1, CB1 receptor (Homo sapiens, UniProt P21554)
T1 construct: expressed in transfected cells
Assay: [35S]-GTPγS binding assay on membranes from cells stably transfected with the CB1 gene, inhibition of CP55940 (EC80) stimulated binding
Type: biochemical
Details: concentration giving half maximal inhibition of GTPγS binding; EC80 of agonist CP55940
Procedure: 10 μg of membranes prepared from cells stably transfected with the CB1 gene were suspended in 200 μl of 100 mM NaCl, 5 mM MgCl2, 1 mM EDTA, 50 mM HEPES (pH 7.4), 1 mM DTT, 0.1% BSA and 100 μM GDP. To this was added an EC80 concentration of agonist (CP55940), the required concentration of test compound and 0.1 μCi [^35S]-GTPγS. The reaction was allowed to proceed at 30° C. for 45 min. Samples were then transferred on to GF/B filters using a cell harvester and washed with wash buffer (50 mM Tris (pH 7.4), 5 mM MgCl2, […]). Filters were then covered with scintillant and counted for the amount of [^35S]-GTPγS retained by the filter.
Activity is measured in the absence of all ligands (minimum activity) or in the presence of an EC80 concentration of CP55940 (maximum activity). These activities are set as 0% and 100% activity respectively. At various concentrations of novel ligand, activity is calculated as a percentage of the maximum activity and plotted. The data are fitted using the equation y=A+((B−A)/1+((C/x)UD)) and the IC50 value determined as the concentration required to give half maximal inhibition of GTPγS binding under the conditions used.

T1 sequence (P21554 whole entry): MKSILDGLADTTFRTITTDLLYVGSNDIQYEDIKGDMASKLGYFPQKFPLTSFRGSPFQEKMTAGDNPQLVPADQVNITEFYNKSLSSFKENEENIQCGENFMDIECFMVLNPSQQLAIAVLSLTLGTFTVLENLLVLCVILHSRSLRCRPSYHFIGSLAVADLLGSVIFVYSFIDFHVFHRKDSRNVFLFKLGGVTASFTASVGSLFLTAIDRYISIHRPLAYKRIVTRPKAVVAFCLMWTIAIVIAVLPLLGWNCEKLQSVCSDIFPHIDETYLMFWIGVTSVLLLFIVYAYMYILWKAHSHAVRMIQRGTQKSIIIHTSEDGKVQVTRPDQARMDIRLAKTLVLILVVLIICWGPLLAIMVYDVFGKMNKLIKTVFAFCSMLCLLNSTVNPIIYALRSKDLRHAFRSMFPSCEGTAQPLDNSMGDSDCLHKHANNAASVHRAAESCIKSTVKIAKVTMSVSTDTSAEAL

IC50: 1.95 nM
SMILES: Cc1ccc(NC(=O)c2nn(-c3ccc(Cl)cc3Cl)c(-c3ccc(OS(=O)(=O)CCC(F)(F)F)cc3)c2C)nc1 [Example 10, 3,3,3-Trifluoro-propane-1-sulfonic acid 4-[2-(2,4-dichlorophenyl)-4-methyl-5-(5-methyl-pyridin-2-ylcarbamoyl)-2H-pyrazol-3-yl]phenyl ester]
